Consider 11 compounds from ChEMBL document CHEMBL5465560, “Selectivity Literature for EUbOPEN Chemogenomic Library” (2024).

Experiment [1] deals with Tyrosine-protein kinase receptor UFO (Homo sapiens) (UniProt P30530). Briefly: Selectivity interaction (Rxn Biology Kinase assay) EUB0001632a AXL. The following applies: at 10 µM.
Experiment [2] concerns the target Tyrosine-protein kinase Fyn (Homo sapiens) (UniProt P06241). Briefly: Selectivity interaction (Kinase panel (Z-LYTE Assay)) EUB0001632a FYN. As to conditions: at 10 µM.
Experiment [3] has as its target Serine/threonine-protein kinase PLK2 (Homo sapiens, UniProt Q9NYY3). Briefly: Selectivity interaction (KinomeScan (DiscoverX)) EUB0000595a PLK2. As to conditions: at 10 µM.
In experiment [4] the target is Ribosomal protein S6 kinase alpha-4 (Homo sapiens) (UniProt O75676). Briefly: Selectivity interaction (KinomeScan (DiscoverX)) EUB0000595a RPS6KA4. The following applies: at 10 µM.
The target in experiment [5] is MAP/microtubule affinity-regulating kinase 3 (Homo sapiens) (UniProt P27448). Briefly: Selectivity interaction (KinomeScan (DiscoverX)) EUB0001619a MARK3. As to conditions: at 1 µM.
Experiment [6] deals with T1, Serine/threonine-protein kinase TNNI3K (Homo sapiens) (UniProt Q59H18).
T1 sequence (whole entry): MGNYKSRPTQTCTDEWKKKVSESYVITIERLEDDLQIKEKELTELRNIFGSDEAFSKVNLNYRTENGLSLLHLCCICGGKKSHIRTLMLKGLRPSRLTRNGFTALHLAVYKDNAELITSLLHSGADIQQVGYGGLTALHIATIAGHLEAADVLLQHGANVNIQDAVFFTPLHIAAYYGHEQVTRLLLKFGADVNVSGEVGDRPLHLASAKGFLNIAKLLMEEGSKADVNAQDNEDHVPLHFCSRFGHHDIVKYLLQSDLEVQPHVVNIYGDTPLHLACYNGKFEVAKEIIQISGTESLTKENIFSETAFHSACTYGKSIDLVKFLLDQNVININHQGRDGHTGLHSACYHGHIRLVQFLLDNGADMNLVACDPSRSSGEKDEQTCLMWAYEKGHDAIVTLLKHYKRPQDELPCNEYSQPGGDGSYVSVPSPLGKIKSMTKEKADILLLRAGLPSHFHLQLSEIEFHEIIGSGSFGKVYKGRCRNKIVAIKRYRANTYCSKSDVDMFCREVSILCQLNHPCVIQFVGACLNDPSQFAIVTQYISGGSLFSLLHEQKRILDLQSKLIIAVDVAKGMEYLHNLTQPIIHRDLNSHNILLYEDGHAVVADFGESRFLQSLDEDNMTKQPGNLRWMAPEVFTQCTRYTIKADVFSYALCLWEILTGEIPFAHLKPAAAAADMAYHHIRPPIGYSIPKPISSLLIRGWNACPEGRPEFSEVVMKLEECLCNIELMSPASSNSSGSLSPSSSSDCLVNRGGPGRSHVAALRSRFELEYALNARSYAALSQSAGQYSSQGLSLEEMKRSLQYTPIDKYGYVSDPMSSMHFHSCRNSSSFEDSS
As to conditions: at 10 µM.

Experiment [7] concerns Tyrosine-protein kinase ABL1 (Homo sapiens), P00519 [H396P]. Briefly: Selectivity interaction (KinomeScan (DiscoverX)) EUB0000607a ABL1. The following applies: at 10 µM.
Experiment [8] addresses Fibroblast growth factor receptor 2 (Homo sapiens) (UniProt P21802). Briefly: Selectivity interaction (Kinase panel (Invitrogen)) EUB0000639a FGFR2. The following applies: at 200 nM.
The target of experiment [9] is Tyrosine-protein kinase JAK1 (Homo sapiens, UniProt P23458). Briefly: Selectivity interaction (KinomeScan (DiscoverX)) EUB0000045b JAK1.
Experiment [10] has as its target T2, Serine/threonine-protein kinase Nek1 (Homo sapiens) (UniProt Q96PY6).
T2 sequence (whole entry): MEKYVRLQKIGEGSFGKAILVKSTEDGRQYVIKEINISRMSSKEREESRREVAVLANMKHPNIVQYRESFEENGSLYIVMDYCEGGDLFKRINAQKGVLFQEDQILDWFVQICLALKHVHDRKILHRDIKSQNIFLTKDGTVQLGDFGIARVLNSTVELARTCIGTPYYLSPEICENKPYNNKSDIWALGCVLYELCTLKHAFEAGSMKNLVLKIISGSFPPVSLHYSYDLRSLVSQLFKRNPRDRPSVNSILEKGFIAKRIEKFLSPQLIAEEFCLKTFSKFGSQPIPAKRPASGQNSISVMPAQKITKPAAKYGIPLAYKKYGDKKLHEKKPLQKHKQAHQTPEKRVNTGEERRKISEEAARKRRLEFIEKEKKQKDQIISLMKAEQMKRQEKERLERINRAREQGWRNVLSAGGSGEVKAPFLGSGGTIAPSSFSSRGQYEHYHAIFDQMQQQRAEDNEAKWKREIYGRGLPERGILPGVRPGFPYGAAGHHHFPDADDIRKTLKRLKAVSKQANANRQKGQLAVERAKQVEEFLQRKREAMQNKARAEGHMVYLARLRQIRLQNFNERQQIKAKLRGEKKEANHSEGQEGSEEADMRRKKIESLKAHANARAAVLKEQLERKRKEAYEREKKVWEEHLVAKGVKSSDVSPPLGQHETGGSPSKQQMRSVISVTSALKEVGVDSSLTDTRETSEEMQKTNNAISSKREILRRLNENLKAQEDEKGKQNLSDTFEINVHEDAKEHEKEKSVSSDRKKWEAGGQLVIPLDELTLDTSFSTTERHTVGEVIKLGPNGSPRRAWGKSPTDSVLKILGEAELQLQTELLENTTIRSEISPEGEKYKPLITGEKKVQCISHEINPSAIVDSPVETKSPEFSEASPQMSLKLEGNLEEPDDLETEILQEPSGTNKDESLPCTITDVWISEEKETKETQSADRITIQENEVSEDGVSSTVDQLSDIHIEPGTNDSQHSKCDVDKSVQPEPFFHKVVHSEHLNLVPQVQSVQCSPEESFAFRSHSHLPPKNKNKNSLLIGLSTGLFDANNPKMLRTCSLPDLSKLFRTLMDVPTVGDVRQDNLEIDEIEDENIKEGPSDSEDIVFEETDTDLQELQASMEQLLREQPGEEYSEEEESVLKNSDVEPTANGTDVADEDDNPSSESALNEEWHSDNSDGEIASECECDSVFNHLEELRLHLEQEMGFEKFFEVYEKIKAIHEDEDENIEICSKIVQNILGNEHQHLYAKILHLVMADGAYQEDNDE
Briefly: Selectivity interaction (ProQinase) EUB0000171b NEK1.

Experiment [11] concerns the target Mitogen-activated protein kinase 11 (Homo sapiens) (UniProt Q15759). Briefly: Selectivity interaction (KinomeScan (DiscoverX)) EUB0001049a MAPK11. As to conditions: at 1 µM.
In experiment [12] the target is Mitogen-activated protein kinase 9 (Homo sapiens, UniProt P45984). Briefly: Selectivity interaction (Upstate Kinase Profiler service (Millipore)) EUB0000056c MAPK9. As to conditions: at 1 µM.
The target of experiment [13] is Mitogen-activated protein kinase 6 (Homo sapiens) (UniProt Q16659). Briefly: Selectivity interaction (KinomeScan (DiscoverX)) EUB0000229b MAPK6. The following applies: at 10 µM.
In a further experiment the target is SRSF protein kinase 1 (Homo sapiens, UniProt Q96SB4). Briefly: Selectivity interaction (KinomeScan (DiscoverX)) EUB0000229b SRPK1. As to conditions: at 10 µM.

Sequence of Tyrosine-protein kinase JAK1 (P23458 whole entry): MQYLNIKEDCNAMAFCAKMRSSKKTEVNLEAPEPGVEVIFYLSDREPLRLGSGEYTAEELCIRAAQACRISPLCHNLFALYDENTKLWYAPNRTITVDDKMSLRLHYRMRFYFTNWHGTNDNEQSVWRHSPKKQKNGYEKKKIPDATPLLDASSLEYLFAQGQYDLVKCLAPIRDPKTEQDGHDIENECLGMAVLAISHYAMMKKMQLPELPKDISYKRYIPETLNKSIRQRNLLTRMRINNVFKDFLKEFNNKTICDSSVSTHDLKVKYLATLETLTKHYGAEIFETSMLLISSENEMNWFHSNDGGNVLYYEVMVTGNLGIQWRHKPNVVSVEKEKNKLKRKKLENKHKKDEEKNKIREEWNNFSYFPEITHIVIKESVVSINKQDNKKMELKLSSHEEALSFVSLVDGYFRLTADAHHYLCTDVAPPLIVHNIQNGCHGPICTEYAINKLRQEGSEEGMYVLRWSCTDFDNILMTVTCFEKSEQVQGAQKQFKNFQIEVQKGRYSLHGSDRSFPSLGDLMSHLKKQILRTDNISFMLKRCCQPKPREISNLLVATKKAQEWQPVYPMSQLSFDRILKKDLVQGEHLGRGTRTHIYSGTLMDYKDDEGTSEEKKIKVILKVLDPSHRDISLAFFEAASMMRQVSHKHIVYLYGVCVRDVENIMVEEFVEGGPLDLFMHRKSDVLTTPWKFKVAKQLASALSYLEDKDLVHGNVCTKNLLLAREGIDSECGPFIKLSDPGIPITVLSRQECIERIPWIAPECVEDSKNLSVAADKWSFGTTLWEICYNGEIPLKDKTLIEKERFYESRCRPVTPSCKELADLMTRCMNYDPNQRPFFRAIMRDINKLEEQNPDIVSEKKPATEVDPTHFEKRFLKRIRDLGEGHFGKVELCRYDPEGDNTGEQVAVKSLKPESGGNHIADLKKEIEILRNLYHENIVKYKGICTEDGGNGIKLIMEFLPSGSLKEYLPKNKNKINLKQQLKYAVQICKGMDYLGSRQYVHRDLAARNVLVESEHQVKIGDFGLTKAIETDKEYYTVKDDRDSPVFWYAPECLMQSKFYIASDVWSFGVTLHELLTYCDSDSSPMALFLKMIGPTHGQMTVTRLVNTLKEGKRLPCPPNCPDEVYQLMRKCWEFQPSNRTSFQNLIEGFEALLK
Sequence of Fibroblast growth factor receptor 2 (Homo sapiens) (P21802 22-821 limits assumed): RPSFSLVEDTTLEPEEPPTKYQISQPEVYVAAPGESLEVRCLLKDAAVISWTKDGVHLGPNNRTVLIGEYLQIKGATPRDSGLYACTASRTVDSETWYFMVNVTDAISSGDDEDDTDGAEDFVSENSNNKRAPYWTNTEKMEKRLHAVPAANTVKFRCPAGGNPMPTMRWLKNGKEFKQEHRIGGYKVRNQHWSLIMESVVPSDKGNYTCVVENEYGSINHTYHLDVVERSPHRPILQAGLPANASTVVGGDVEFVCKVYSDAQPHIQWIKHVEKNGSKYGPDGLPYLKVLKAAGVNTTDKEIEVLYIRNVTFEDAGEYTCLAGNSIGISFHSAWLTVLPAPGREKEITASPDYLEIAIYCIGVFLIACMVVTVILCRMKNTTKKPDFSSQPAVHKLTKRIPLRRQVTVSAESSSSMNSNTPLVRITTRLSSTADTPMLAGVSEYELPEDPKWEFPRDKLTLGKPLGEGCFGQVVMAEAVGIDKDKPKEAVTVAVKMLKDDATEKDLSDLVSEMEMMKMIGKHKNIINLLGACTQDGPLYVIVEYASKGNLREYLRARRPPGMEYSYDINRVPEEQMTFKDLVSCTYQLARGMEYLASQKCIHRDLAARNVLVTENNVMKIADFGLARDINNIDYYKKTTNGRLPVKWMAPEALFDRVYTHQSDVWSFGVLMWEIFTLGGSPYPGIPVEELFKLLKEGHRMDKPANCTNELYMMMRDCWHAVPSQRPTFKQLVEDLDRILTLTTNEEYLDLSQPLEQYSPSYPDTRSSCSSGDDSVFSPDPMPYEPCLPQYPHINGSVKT
Sequence of Ribosomal protein S6 kinase alpha-4 (Homo sapiens) (O75676 whole entry, looked up): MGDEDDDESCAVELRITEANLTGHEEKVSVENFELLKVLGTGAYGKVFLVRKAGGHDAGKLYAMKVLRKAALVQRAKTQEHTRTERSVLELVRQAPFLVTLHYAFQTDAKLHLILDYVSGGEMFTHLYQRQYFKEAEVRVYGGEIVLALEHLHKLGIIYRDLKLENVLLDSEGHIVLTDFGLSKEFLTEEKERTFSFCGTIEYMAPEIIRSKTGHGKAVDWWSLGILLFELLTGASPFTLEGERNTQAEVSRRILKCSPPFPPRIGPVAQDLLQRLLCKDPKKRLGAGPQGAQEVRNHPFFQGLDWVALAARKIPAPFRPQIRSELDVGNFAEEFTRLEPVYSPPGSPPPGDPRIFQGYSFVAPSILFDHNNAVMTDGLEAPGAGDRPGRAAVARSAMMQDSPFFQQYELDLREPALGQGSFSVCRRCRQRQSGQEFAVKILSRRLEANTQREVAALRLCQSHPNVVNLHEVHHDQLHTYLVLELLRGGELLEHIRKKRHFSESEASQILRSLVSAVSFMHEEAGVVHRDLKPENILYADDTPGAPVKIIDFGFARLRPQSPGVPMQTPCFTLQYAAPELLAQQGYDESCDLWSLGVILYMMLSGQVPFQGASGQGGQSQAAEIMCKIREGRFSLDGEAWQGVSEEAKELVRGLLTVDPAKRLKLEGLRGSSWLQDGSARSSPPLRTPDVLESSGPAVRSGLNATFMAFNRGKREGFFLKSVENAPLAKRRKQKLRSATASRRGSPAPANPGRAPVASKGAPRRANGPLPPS
Sequence of Serine/threonine-protein kinase PLK2 (Q9NYY3 whole entry, looked up): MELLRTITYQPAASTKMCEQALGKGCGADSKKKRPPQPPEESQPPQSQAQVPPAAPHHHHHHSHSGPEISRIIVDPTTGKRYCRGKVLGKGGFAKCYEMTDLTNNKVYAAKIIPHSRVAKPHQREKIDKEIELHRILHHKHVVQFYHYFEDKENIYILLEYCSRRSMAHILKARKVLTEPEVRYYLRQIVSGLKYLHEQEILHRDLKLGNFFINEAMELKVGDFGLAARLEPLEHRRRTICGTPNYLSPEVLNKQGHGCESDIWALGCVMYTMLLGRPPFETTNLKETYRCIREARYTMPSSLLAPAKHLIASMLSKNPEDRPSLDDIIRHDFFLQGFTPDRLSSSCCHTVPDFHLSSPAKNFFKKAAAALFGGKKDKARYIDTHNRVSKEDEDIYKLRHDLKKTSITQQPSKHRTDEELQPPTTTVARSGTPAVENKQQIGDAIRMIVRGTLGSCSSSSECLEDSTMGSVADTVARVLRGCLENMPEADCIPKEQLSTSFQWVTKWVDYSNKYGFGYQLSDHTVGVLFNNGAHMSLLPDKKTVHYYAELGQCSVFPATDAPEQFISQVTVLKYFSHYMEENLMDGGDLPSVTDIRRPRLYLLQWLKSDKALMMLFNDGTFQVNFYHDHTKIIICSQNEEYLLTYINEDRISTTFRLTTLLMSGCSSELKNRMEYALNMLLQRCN
Sequence of Mitogen-activated protein kinase 6 (Homo sapiens) (Q16659 whole entry): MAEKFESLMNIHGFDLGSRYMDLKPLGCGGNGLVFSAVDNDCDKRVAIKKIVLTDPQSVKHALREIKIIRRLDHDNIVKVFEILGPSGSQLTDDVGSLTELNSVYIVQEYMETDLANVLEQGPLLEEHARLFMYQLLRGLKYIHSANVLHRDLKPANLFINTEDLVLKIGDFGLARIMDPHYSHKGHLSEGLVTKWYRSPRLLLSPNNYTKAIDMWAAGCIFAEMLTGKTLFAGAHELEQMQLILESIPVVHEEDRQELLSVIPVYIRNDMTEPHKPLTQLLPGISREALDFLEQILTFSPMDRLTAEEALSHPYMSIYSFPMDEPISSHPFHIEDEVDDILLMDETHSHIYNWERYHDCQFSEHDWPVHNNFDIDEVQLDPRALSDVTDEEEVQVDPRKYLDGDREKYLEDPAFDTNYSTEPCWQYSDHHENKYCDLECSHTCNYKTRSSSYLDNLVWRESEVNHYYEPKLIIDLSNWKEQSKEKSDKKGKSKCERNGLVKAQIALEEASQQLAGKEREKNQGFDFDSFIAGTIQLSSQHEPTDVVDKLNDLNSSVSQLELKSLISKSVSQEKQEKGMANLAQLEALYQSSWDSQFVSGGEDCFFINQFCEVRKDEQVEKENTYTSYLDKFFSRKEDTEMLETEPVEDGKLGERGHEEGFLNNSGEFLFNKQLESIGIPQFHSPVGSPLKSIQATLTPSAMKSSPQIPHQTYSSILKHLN
Sequence of Mitogen-activated protein kinase 11 (Homo sapiens) (Q15759 whole entry): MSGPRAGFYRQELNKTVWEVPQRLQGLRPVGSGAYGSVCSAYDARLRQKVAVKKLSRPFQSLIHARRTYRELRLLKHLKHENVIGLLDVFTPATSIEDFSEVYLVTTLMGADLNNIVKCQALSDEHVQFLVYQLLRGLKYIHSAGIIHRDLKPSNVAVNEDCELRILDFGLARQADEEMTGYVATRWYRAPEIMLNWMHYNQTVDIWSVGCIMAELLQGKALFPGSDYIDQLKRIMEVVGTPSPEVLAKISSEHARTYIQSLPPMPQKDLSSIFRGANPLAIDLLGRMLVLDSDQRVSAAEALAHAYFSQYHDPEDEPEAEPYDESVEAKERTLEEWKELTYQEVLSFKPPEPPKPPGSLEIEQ
Sequence of Mitogen-activated protein kinase 9 (P45984 whole entry, looked up): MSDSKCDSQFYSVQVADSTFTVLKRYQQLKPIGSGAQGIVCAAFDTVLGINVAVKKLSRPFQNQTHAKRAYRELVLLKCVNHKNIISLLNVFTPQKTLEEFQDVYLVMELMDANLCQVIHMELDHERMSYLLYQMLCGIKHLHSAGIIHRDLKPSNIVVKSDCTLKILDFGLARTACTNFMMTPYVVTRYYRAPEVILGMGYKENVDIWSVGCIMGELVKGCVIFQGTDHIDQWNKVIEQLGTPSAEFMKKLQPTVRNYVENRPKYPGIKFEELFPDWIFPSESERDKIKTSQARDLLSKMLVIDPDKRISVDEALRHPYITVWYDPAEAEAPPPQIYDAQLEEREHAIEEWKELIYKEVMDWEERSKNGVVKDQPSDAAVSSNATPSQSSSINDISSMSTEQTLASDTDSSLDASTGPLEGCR

With `Cn1cc(-n2cnc3c(NCc4nc5cc(Cl)c(Cl)cc5[nH]4)nc(N4CCOCC4)nc32)cn1`, in experiment [1], the % of inhibition is 4.15%. Also, the % of control in [2] amounted to 1.52%. Regarding `COCC(=O)NC/C=C/c1ccc2ncnc(Nc3ccc(Oc4ccc(C)nc4)c(C)c3)c2c1` [CP-724714], the % of control is 100% in experiment [3] and 97% in experiment [4]. `N#Cc1cccc(-c2c[nH]c3ncnc(N4CCOCC4)c23)c1` returned a % of control in experiment [5] of 100%.

For `CCN(CC)CCCCNc1ncc2cc(-c3cc(OC)cc(OC)c3)c(NC(=O)NC(C)(C)C)nc2n1`, the % of control in [6] is 100%. As for `CNC(=O)Nc1ccc(-c2nc(N3CC4CCC(C3)O4)c3cnn(C4CCC5(CC4)OCCO5)c3n2)cc1`, the % of control in experiment [7] worked out at 100%.

On to `CC[C@@H]1[C@H](F)C(=O)N[C@@H]1COc1nccc2cc(C(N)=O)c(OC)cc12` [ZIMLOVISERTIB], for which the % of inhibition in experiment [8] is -3.82%.

Take `C=CC(=O)Nc1cc(-n2c(=O)ccc3cnc4ccc(-c5ccc(NS(C)(=O)=O)cc5)cc4c32)ccc1C`: the % of control in [9] (at 1 µM) stood at 87%; in experiment [9] (at 10 µM), 76%.

In the case of `C=CC(=O)Nc1cccc(C(=O)Nc2ccc(Nc3cc(-c4[nH]c(SC)nc4C)ccn3)cc2)c1`, the results for the % of control in experiment [10] (at 1 µM) and in experiment [10] (at 5 µM) were 80% and 64%, respectively. In turn, `COc1cc(Nc2nc(C)cc(-c3cnn4nc(OC)ccc34)n2)cc(C(F)(F)F)c1` came in with a % of control in experiment [11] of 100%.

`Cc1ccc(-c2ccc3c(ccc4sc5c(c43)NC[C@@H](C)NC5=O)n2)cn1`: the % of inhibition in [12] is -12%. For `COc1cc(N(C)c2ccnc3ccc(C(F)(F)F)cc23)cc(OC)c1OC`, the % binding was 100% in [13] and 92% at SRSF protein kinase 1.
